Reference: ChEMBL document CHEMBL3046540, “Statistically validated QSAR study of some antagonists of the human CCR5 receptor using least square support vector machine based on the genetic algorithm and factor analysis” (Med Chem Res, 2013)

Target: C-C chemokine receptor type 5 (Homo sapiens, UniProt P51681)
Experiment: Antagonist activity at Homo sapiens (human) CCR5 receptor

Sequence of C-C chemokine receptor type 5 (P51681 whole entry): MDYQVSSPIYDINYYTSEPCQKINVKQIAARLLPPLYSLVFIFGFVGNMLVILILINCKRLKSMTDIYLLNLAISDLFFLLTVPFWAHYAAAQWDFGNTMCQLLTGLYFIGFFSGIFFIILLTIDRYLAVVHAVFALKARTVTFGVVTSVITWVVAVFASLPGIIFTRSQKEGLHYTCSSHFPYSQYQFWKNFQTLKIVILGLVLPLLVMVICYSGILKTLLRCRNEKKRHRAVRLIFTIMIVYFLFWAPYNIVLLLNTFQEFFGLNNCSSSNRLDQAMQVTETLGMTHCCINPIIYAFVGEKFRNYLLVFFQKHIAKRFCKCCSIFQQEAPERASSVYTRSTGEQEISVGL

Compound | IC50 [nM]
C=CCN(C(=O)c1ccc([N+](=O)[O-])cc1)C1CCN(CCC(CN(C)S(=O)(=O)c2ccccc2)c2ccccc2)CC1 (configuration not stated) | 2
C=CCN(C(=O)Nc1ccc([N+](=O)[O-])cc1)C1CCN(CCC(CN(C)S(=O)(=O)c2ccccc2)c2ccccc2)CC1 (configuration not stated) | 0.759
CCCN(C(=O)NC)C1CCN(CCC(CN(C)S(=O)(=O)c2ccccc2)c2ccccc2)CC1 (configuration not stated) | 1000
CCN(C(=O)OC)C1CCN(CC[C@H](CN(C)S(=O)(=O)c2ccccc2)c2cccc(Cl)c2)CC1 | 39.8
CCCN(C(=O)OCc1ccccc1C)C1CCN(CC[C@H](CN(C)S(=O)(=O)c2ccccc2)c2ccccc2)CC1 | 1.51
CCCN(C(=O)OCc1ccccc1)C1CCN(CC[C@H](CN(C)S(=O)(=O)c2ccccc2)c2ccccc2)CC1 | 3.98
CNC(=O)NC1CCN(CCC(CN(C)S(=O)(=O)c2ccccc2)c2ccccc2)CC1 (configuration not stated) | 120

The remaining molecules from weak to strong by IC50, led by results:

IC50 [nM] | Compound
1000 | COC(=O)NC1CCN(CC[C@H](CN(C)S(=O)(=O)c2ccccc2)c2ccccc2)CC1
100 | CCN(C(=O)NCc1ccccc1)C1CCN(CCC(CN(C)S(=O)(=O)c2ccccc2)c2ccccc2)CC1 (configuration not stated)
3.02 | CCCN(C(=O)OCc1ccc(C(N)=O)cc1)C1CCN(CC[C@H](CN(C)S(=O)(=O)c2ccccc2)c2ccccc2)CC1
2.51 | CN(CC(CCN1CCC(NC(=O)NCc2ccccc2)CC1)c1ccccc1)S(=O)(=O)c1ccccc1 (configuration not stated)
0.794 | CCCN(C(=O)OCc1cccc(C(N)=O)c1)C1CCN(CC[C@H](CN(C)S(=O)(=O)c2ccccc2)c2ccccc2)CC1
